# According to patent US20100254940A1, “Compositions and Methods for Regulating an Immune Response in a Subject” (INNATE PHARMA, S.A., priority 2002, published 2010):
# Assays:
# [1] = Two week repeated dose toxicity study in rats, i.v. BrHPP; type: in vivo, Sprague-Dawley rats
# Procedure: The objective of this GLP study was to evaluate the potential toxicity of BrHPP following daily i.v. administration in rats for two weeks. 116 Sprague-Dawley rats were allocated into four groups: one control group (Group 1) with 10 males and 10 females and three treatment groups (Groups 2 to 4) with 10 males and 10 females. Group 2, 3 and 4 were administered respectively 80, 150 and 300 mg/kg/day (respectively 48, 90 and 180 mg/kg in anionic form equivalent) of BrHPP. […] Satellite animals were allocated for toxico-kinetics purposes.
# BrHPP was administered daily by slow intravenous injection (0.4 mL/min) as a solution in sterile water for injection and Ringer lactate at the dose levels of 80, 150 or 300 mg/kg/day. The control group received the vehicle (together with 1% sodium to reach an osmolarity similar to the high-dose group dosage forms) under the same experimental conditions. A constant dosage-volume of 5 mL/kg was used.
# The animals were checked daily for mortality and clinical signs. Body weight and food consumption were recorded twice a week. Opthalmologic examination was performed before and at the end of the treatment period. Blood samples for determination of levels of BrHPP were taken from satellite animals on Day 1 and at the end of the treatment period. Vaginal lavage was performed in females during pre-treatment and at the end of the treatment period for monitoring of estrous cycle. Hematological, blood biochemical and urinalysis investigations were performed on all principal animals at the end of week 2. On completion of the study, all animals were killed and subjected to a macroscopic post mortem examination and specified organs were weighed and preserved. Microscopic examination was performed on selected tissues from animals of the control and the 300 mg/kg/day groups.
# [2] = Vital parameters, haematology and serum clinical chemistry follow up in cynomolgus monkeys (non-GLP studies); type: in vivo, cynomolgus monkeys (M. fascicularis)
# Procedure: Classical blood parameters follow-up (red blood cell, platelets total and differential white blood cells counts, haemoglobin, mean corpuscular haemoglobin, mean corpuscular haemoglobin concentration) were performed at the sites of monkey handling, just before and after each administration and twice weekly.
# On all animals in group 2, 48 or 72 hours after each injection, 16 blood chemistry parameters were measured (sodium, potassium, chloride, calcium, inorganic phosphorus, glucose, urea, total cholesterol, total bilirubin, total protein, albumin, globulin, creatinin, alkaline phosphatase, aspartate aminotransferase and […] aminotransferase).
# The animals were observed daily and during and after each injection for any change in vital and clinical parameters (general behaviour, skin, hair, respiratory system, central nervous system). Animals were regularly weighed, every 3 days (group 1) or weekly (group 2). Body temperature (on vigil animals of group 2) was measured before and at the end of each BrHPP/IL2 (or IL2 alone) infusion and once daily during the 5 days following administration. Heart rate and blood pressure were recorded for all animals in group 2, before and at the end of each administration.
# [3] = tested on: Vγ9Vδ2 T cells; experiment: Expansion of peripheral blood Vγ9Vδ2 T cells from PBMCs of mRCC patients with BrHPP and IL2; type: cell-based, human; conditions: 3 μM BrHPP + IL2, 15 days; 7 patients out of 12
# Procedure: Blood samples from 12 RCC patients (50 ml) were collected just before or no more than 2 months after the nephrectomy. PBMCs were isolated by centrifugation on Ficoll-Hypaque density gradient (Amersham Biosciences). PBMCs from one healthy volunteer was used as control.
# Ten million PBMCs were cultured at 2×10^6/ml in 24 well plate in RPMI 1640 supplemented with 10% v/v fetal calf serum (Fetal Clone irradiated, Hyclone).
# Polyclonal Vγ9Vδ2 T cell lines were specifically expanded in presence of 3 μM BrHPP molecule (batch INPA-0214) and 100 IU/ml IL2 during 15 days.
# Every three days, the volume corresponding to half culture medium was replaced by fresh medium containing only 200 IU/ml IL2
# Before in vitro culture, phenotype of 2×10^5 PBMCs from RCC patients was analyzed using the following combinations of fluorescein isothiocyanate (FITC), phycoerythrin (PE) and phycoreythrin-cyanin 5 (PC5) conjugated antibodies to determine the NK, αβ and γδ T cells population (all purchased from Beckman-Coulter): CD3-PC5/Vδ2-FITC/IgG1-PE, CD8-PE, CD56-PE. At day 15 of the culture, a triple staining was performed on the expanded Vδ9Vδ2 T cells bulk. The following antibodies combinations were performed: […]
# [4] = tested on: γδ T cell; experiment: In vitro TNFα release assay, γδ T cell amplification from human PBMCs (in the presence of rhIL2); type: cell-based; conditions: TNFα release assay; human PBMCs, rhIL2
# Procedure: The in vitro biological activity of γδ T cell amplification from human PBMCs (in the presence of rhIL2) was assessed using a TNFα release assay.
# Cytokine secretion and cytolytic activity can be assessed using any appropriate in vitro assay, or those provided in the examples herein. For example, cytokine secretion can be determined according to the methods described in Espinosa et al. (J. Biol. Chem., 2001, Vol. 276, Issue 21, 18337-18344), describing measurement of TNF-α release in a bioassay using TNF-α-sensitive cells. Briefly, 10^4 γδT cells/well were incubated with stimulus plus 25 units of IL2/well in 100 μl of culture medium during 24 h at 37° C. Then, 50 μl of supernatant were added to 50 μl of WEHI cells plated at 3×10^4 cells/well in culture medium plus actinomycin D (2 μg/ml) and LiCl (40 mM) and incubated for 20 h at 37° C. Viability of the TNF-α-sensitive cells and measured with a 3-(4,5-dimethylthiazol-2-yl)-2,5-diphenyltetrazolium bromide assay. 50 μl of 3-(4,5-dimethylthiazol-2-yl)-2,5-diphenyltetrazolium bromide (Sigma; 2.5 mg/ml in phosphate-buffered saline) per well were added, and after 4 h of incubation at 37° C., 50 μl of solubilization buffer (20% SDS, 66% dimethyl formamide, pH 4.7) were added, and absorbance (570 nm) was measured. Levels of TNF-α release were then calculated from a standard curve obtained using purified human rTNF-α (PeproTech, Inc., Rocky Hill, N.J.). Interferon-γ released by activated T cells was measured by a sandwich enzyme-linked immunosorbent assay. 5×10^4 γδT cells/well were incubated with stimulus plus 25 units of IL2/well in 100 μl of culture medium during 24 h at 37° C. Then, 50 μl of supernatant were harvested for enzyme-linked immunosorbent assay using mouse monoclonal antibodies (BIOSOURCE, Camarillo, Calif.). […]
# BrHPP and HDMAPP bioactivity were compared using in vitro and in vivo assays. The in vitro biological activity of γδ T cell amplification from human PBMCs (in the presence of rhIL2) was assessed using a TNFα release assay.
substance,measurement,setting,value
3-(bromomethyl)-3-butanol-1-yl-diphosphate [BrHPP],"microscopic examination, other organs and tissues",[1]; 300 mg/kg/day,No relevant findings were seen in other organs and tissues
same,opthalmologic findings,"[1]; 300 mg/kg/day, end of treatment",No relevant opthalmologic findings
same,mortality,"[1]; 80, 150, 300 mg/kg/day i.v. two weeks",No unscheduled death occurred
same,clinical signs during dosing,[1]; 150 and 300 mg/kg/day,Vocalization during dosing was noted on many occasions
same,"microscopic examination, tail vein","[1]; both control and BrHPP-treated, attributed to mechanical injury",slight changes were observed in the tail vein
same,macroscopic post-mortem examination,[1]; end of treatment,No relevant findings were noted
same,organ weights,[1]; end of treatment,No relevant differences in organ weights from controls
same,"hematological, biochemical or urinary parameter",[1]; end of week 2,No changes of toxicological significance
same,mean body weight gain,[1]; females,Dose-related higher mean body weight gain
same,NOAEL in anionic form equivalent,[1]; highest tested dose,180 mg/kg
same,No Observed Adverse Effect Level (NOAEL),[1]; highest tested dose,300 mg/kg/day
same,clinical or blood chemical parameters,[2]; BrHPP alone or in association with IL2,No alteration of clinical or blood chemical parameters
same,rectal temperature,[2]; any animal treated,not significantly affected
same,toxicity as assessed by vital signs or rectal temperature,[2]; five daily injection of 0.2 mg/kg BrHPP alone,did not result in any toxicity
same,"toxicity, fever","[2]; four daily injections 1, 4, 16, 32 mg/kg BrHPP alone",no toxicity nor fever was observed
same,lymphocytes,"[2]; highest dose of BrHPP, at peak of Vg9Vd2 in the periphery",a lymphocytosis was observed
same,patients presenting a Vγ9Vδ2 T cells amplification,[3],58%
same,EC50,[4],~30 nM
